Measurements taken from ChEMBL document CHEMBL6103672, “Discovery of HMPL-306 (Ranosidenib), a New Potent and Selective Dual Inhibitor of Mutant IDH1 and 2 in Clinical Development for Cancer Treatment” (ACS Med Chem Lett, 2025).

Key:
[1] = molecular target: Isocitrate dehydrogenase [NADP], mitochondrial (Homo sapiens, UniProt P48735, R140Q); experiment: Inhibition of IDH2 R140Q mutant (unknown origin) using alpha-ketoglutarate as substrate preincubated with compound for 16 hrs followed by substrate addition and measured after 1 hr in presence of NADPH by fluorescence based analysis
Isocitrate dehydrogenase [NADP], mitochondrial, sequence (P48735 40-452 R140Q limits assumed): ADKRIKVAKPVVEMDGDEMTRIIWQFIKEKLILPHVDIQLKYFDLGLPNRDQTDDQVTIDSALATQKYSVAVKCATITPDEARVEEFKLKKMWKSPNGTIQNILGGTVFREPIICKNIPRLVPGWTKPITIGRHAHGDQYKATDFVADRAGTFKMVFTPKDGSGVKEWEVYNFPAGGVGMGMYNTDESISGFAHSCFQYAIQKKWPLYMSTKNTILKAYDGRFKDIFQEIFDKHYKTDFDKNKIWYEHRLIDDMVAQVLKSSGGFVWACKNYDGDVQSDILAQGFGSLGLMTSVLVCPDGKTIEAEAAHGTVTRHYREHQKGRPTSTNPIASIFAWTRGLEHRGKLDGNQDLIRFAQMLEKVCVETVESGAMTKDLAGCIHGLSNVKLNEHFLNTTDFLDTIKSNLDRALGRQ

[2] = Volume of distribution at steady state in male ICR mouse at 2.5 mg/kg, iv measured after 8 hrs by LC/MS/MS analysis; assay type: ADME, organism-based; conditions: in vivo, read-out: Vdss
[3] = AUC(0 to t) in male ICR mouse at 10 mg/kg, po measured upto 24 hrs by LC/MS/MS analysis; assay type: ADME, organism-based; conditions: in vivo
[4] = Inhibition of IDH1 R132C mutant in human HT-1080 cells incubated for 72 hrs by measuring 2-HG production by fluorescence based analysis; assay type: functional, cell-based; conditions: HT-1080, 72 h
[5] = AUC(0 to t) in male ICR mouse at 2.5 mg/kg, iv measured after 24 hrs by LC/MS/MS analysis; assay type: ADME, organism-based; conditions: in vivo
[6] = AUC(0 to infinity) in male Sprague-Dawley rat at 1 mg/kg, iv measured after 24 hrs by LC/MS/MS analysis; assay type: ADME, organism-based; conditions: in vivo
UGT1A1 = molecular target: T1, UGT1A1 (Homo sapiens, UniProt P22309); experiment: Inhibition of UGT1A1 (unknown origin) at 10 uM relative to control; assay type: ADME
T1 sequence (P22309 whole entry): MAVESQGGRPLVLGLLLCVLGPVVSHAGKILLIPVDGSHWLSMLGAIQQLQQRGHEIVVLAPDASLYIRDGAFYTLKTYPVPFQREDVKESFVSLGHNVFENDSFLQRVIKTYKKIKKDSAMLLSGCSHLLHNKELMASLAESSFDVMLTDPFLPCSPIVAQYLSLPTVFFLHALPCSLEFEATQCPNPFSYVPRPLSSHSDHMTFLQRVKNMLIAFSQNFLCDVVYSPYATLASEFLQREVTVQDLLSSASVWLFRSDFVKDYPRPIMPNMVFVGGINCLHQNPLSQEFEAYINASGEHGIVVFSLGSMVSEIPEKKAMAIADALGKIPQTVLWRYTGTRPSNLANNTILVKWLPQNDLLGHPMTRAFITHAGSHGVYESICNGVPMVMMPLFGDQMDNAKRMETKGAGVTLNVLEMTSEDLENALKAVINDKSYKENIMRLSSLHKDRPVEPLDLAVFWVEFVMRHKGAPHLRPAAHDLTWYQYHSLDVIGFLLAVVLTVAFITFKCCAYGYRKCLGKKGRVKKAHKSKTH

[7] = Ratio of drug concentration in brain to plasma of BALB/c nude mouse xenografted with human U-87 MG cells harboring IDH2 R140Q mutant at 50 mg/kg measured after 16 hrs by LC/MS/MS analysis; assay type: ADME, organism-based; conditions: read-out: BPR

- IC50 [1]: 28 nM
- Vd [2]: 2.57 L/kg
- AUC(0-t) at 24 h [3]: 35000 ng·h/mL
- IC50 [4]: 26 nM
- AUC(0-t) at 24 h [5]: 10400 ng·h/mL
- AUC(0-inf) [6]: 19800 ng·h/mL
- inhibition at 10 µM (UGT1A1): 46.7%
- Kp at 16 h [7]: 2.8
SMILES: C[C@@H](Nc1nc(N[C@H](C)C(F)(F)F)nc(C2=C(F)[C@H](O)C(F)(F)CC2)n1)C(F)(F)F [RANOSIDENIB]
